Two compounds from patent US20160257927A1, “THREE-DIMENSIONAL CELL CULTURE USING NANOFIBER SLURRIES AND NANO-STRUCTURED SUBSTRATES” (UCL BUSINESS PLC, priority 2015, published 2016) can be followed below.

This assay concerns Lung cancer A549 cells. Kind of assay: Chemosensitivity to anticancer drugs in 2D TCP and 3D scaffold (MTS CellTiter 96 cell viability). It counts as cell-based, human. The note with it: 48 hrs treatment; 2D TCP vs 3D CA/Rayon, 1:9 scaffold; 25000 cells seeded. As for the experimental part: FIG. 18. Chemosensitivity of cancer cell lines in response to 48 hrs treatment with anticancer drugs when cultured in 2D Tissue Culture Plates (TCP) and 3D CA/Rayon, 1:9 scaffold.
25000 cells of tested cell lines were seeded in 2D TCP and 3D scaffold. Cells were treated with anticancer drugs for 48 hrs and then cell viability was measured using MTS CellTiter 96® Aqueous One Solution assay (Promega).

On to `O=c1[nH]cc(F)c(=O)[nH]1` [5-fluorouracil], for which the “chemosensitivity (cell viability) of A549 cells” value was “more sensitive to 5-fluorouracil and doxorubicin in 2D TCP than in 3D scaffolds”. As for `COc1cccc2c1C(=O)c1c(O)c3c(c(O)c1C2=O)C[C@@](O)(C(=O)CO)C[C@@H]3O[C@H]1C[C@H](N)[C@H](O)[C@H](C)O1` [doxorubicin], the “chemosensitivity (cell viability) of A549 cells” value was “more sensitive to 5-fluorouracil and doxorubicin in 2D TCP than in 3D scaffolds”.
